Experiments:
[1] = target: Mitogen-activated protein kinase 1 (Rattus norvegicus, UniProt P63086); test: Kinase Inhibition Assay; settings: pH 7.5; 37 °C
[2] = target: Mitogen-activated protein kinase 14 (Homo sapiens, UniProt Q16539); test: Kinase Inhibition Assay; settings: pH 7.5; 37 °C
Sequence of Mitogen-activated protein kinase 14 (Q16539 whole entry): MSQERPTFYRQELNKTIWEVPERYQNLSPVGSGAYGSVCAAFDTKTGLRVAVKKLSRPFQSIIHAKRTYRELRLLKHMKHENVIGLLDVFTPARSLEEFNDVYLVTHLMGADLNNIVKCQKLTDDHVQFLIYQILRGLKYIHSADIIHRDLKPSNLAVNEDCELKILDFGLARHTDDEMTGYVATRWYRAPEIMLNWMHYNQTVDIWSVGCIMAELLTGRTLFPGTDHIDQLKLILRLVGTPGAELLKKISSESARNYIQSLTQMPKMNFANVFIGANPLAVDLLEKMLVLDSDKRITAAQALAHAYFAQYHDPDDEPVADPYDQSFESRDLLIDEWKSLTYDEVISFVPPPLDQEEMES

Sequence of Mitogen-activated protein kinase 1 (P63086 whole entry): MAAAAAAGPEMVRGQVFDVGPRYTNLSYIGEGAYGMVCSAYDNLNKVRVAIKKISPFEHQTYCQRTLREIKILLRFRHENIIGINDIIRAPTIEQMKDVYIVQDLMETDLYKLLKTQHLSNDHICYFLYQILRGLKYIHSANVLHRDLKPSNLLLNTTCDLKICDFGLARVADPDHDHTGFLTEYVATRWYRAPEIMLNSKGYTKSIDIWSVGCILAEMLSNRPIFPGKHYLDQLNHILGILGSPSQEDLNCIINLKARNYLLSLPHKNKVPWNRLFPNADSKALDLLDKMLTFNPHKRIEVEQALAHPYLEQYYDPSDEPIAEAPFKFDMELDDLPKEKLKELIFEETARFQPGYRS

Row | Compound | IC50 [1] [µM] | IC50 [2] [µM]
1 | Cn1cnc2c(NCc3ccccc3)nc(NCCO)nc21 [2,6,9-Trisubstituted purine deriv. 26] | 27 | > 100
2 | C[S+]([O-])c1ccc(-c2nc(-c3ccncc3)c(-c3ccc(F)cc3)[nH]2)cc1 (stereo not drawn) [4-{4-(4-fluorophenyl)-2-[4-(methylsulfinyl)phenyl]-1H-imidazol-5-yl}pyridine] | > 1000 | –

Reference: BindingDB's records for doi:10.1016/s0969-2126(98)00113-0 (University of Texas At Dallas, 1998)
